Reference: patent US20070264229A1, “Peptides for Treatment of Autoimmune Disease” (priority 2004, published 2007)
Where two headings read alike, the source gives them in different places.

What was measured:
[1] = tested on: spleen and lymph node cells of SJL/J mice; test: Cytokine measurement by ELISA in cultures from immunized SJL/J mice; type: cell-based, mouse; conditions: re-stimulated with cognate peptide 2 days, FIG. 4
Method: After ten days, single cell suspensions derived from lymph nodes and spleens were re-stimulated with the corresponding peptides in the presence of antigen presenting cells for two days. Culture supernatants were analyzed for amount of secretion of IL-2, IL-4, IL-10 and IFN-γ by ELISA.
Cytokine mAb directed against each of IL-2, IL-4, IL-10, and IFN-γ was coated into wells of 96-well plates at a concentration of 1 μg/ml overnight. Plates were washed and were treated with blocking solution (Kierkegaard and Perry, Gaithersburg, Md.), followed by incubation of each of the cytokine standards and the culture supernatants overnight at 4° C. After washing, plates were incubated with corresponding biotinylated anti-cytokine-detecting mAb (1 μg/ml) for 2 hrs. Plates were developed by addition of avidin/peroxidase and its substrate. The mAb pairs used were from the following clones: IL-2: JES6-A112, and JES6-5H4; IL-4: 11B11 and BVD6-24G2; IL-10: JES5-16E3 and SXC-1; and IFN-γ: R4-6A2 and XMG 1.2 (PharMingen).

[2] = tested on: PLP139-151-specific CD4+ T cells; test: Detection of PLP 139-151-reactive CD4+ T cells with I-As/PLP 139-151 tetramers; type: in vivo, mouse; conditions: SJL mice immunized with PLP139-151 alone, cultured 4 days, FIG. 7A
Method: After 10 days, lymphocytes were cultured with PLP 139-151. Four days later, after gating with anti-CD4, anti-CD25, and 7-amino-actinomycin D (7-AAD), live cells were incubated with I-A^s tetramers with PLP 139-151 (left) or with control peptide TMEV 70-86 (right) for 3 hrs. The I-A^s/tetramer-stained cells were determined in live CD4^+ T cell subset after eliminating dead cells (7-AAD positive).
SJL/J mice in groups of 3 animals were immunized with CFA alone or with PLP 139-151, with or without each of the peptides (75 μg each/mouse) in CFA. On day 10, all mice were sacrificed, and single cell suspensions were prepared and cultured at a density of 5×10^6 cells per ml in DMEM medium containing 10% fetal calf serum (FCS), 2 mM L-glutamine, 10 mM HEPES, 2 mM mercaptoethanol, penicillin (1000 U/ml) and streptomycin (1 μg/ml) (Biowhittaker, Walkersville, Md.). The cultures from each of the above groups were re-stimulated with PLP 139-151 with or without peptides (25 μg per ml). The mice treated with CFA only were used as negative control to validate immunizations; the PLP 139-151-immunized mice were used as positive controls to which the effect of peptides on PLP 139-151-specific CD4^+ T cell responses was compared.
After 4 days of culturing, cell suspensions were subjected to Ficoll-Hypaque density gradient centrifugation and were washed twice using PBS. […]

[3] = tested on: spleen and lymph node cells of SJL/J mice; conditions: copolymer, Illés 2004 / Stern 2004 PNAS; cited from earlier work
relapsing-remitting MS = conditions: relapsing-remitting forms of MS, cited from earlier work
[4] = tested on: MBP85-99-specific transgenic (hVβ2+CD4+) and endogenous (hVβ2−CD4+) T cells; test: Cross-reactivity: proliferation of sorted transgenic and endogenous CD4+ T cells from humanized mice; type: cell-based, mouse; conditions: 10 μg/ml MBP85-99 or 100 μg/ml peptide, FIG. 3A
Method: To sort human TCR transgenic T cells specific to MBP 85-99, splenocytes from humanized mice were incubated with anti-CD4-APC (clone GK1.5, obtained from PharMingen, San Diego, Calif.) and anti-human Vβ2-PE (Immunotech, Marseille, France) at room temperature for 20 min. After washing twice, tg and endogenous or non-tg CD4 T cells (hVβ2^−CD4 cells) were sorted using a FACS Vantage SE apparatus (Becton Dickinson, San Diego, Calif.). The purity of fractionated hVβ2^+CD4^+ and hVβ2^−CD4^+ T cells was determined to be 98-99%.
SJL/J mice were immunized with PLP 139-151 or with each of the peptides (100 μg per mouse) emulsified in complete Freund's adjuvant (CFA; Difco Laboratories, Detroit, Mich.). Ten days later, single cell suspensions were prepared from spleens and lymph nodes, and were stimulated and re-stimulated with corresponding peptides at a concentration of 10 μg/ml in the presence of APC. After two rounds of stimulation, viable lymphocytes were separated by Ficoll-Hypaque density gradient centrifugation and were tested for specificity at a dose range of 0 to 50 μg/ml. NASE 101-120 peptide, which also binds I-A^s was used as a negative control. Lymphocytes were cultured in 96-well plates at a density of 5×10^5 cells per ml for 48 hrs, and were pulsed with ^3[H]-thymidine, 1 μCi per well. After sixteen hours of culture, plates were harvested and a Wallac scintillation counter (model 1250) was used to analyze the proliferative response determined by amount of ^3[H]-thymidine incorporation CPM. To determine the proliferative response of each of tg T cells expressing HLA-DR2 and human MBP 85-99-specific TCR, and non-tg T cells, the cells fractionated by flow cytometry were seeded in complete medium at 4×10^5 cells/well in 96-well U-bottom microtiter plates. Irradiated splenocytes of humanized mice were used as APC.
Therefore, MBP85-99-specific transgenic (hVβ2^+CD4^+) and endogenous (non-transgenic, hVβ2^−CD4^+) T cells were sorted by flow cytometry from spleen cells of humanized double transgenic mice.

HLA-DR2 (DRA/DRB1*1501) = molecular target: T1, HLA-DR2 (DRA/DRB1*1501) (Homo sapiens, UniProt P01903+P01911); test: Competitive binding assay for HLA-DR2: inhibition of biotinylated MBP 85-99 binding
T1 construct: isolate soluble HLA-DR2 molecules which had been expressed in Drosophila S2 cells; made in house; host or cells: Drosophila S2 cells
Method: The reaction mixtures were transferred to plates coated with LB3.1 Ab specific to HLA DR2 molecules. Following addition of streptavidin-conjugated alkaline phosphatase, absorbance was measured at 450 nm by using a microtiter plate reader. Percent inhibition was calculated as described in the Materials and Methods. […] These studies were performed as described ([…]. et al. 2002. J Clin Invest 109:1635). […] Antigen presentation assay was performed as described previously [[…]. et al. 2001 Hum Immunol 62:753].

[5] = tested on: PLP139-151 specific cell line; test: Cross-reactivity with PLP139-151 specific cell line; type: cell-based, mouse; conditions: FIG. 3B
Method: The proliferative responses were measured as CPM after pulsing with ^3[H] thymidine.

[6] = tested on: EAE in HLA-DR2 and MBP85-99-specific TCR double tg mice; conditions: previous study, Illés 2004 PNAS 101:11749; cited from earlier work

With “PLP139-151: one of the most immunodominant and encephalitogenic epitopes of PLP in SJL/J mice (CHCLGKWLGHPDK; UniProt P60202 139-151, looked up, fragment)” the IFN-γ production [1] was “produced in significant amounts”, the IL-2 production [1] was “produced in significant amounts” and the “Secretion of IL-4” value [1] was “comparable in all of the cultures”. The “expansion of PLP tetramer reactive cells” value [2] was 1.5%.
For poly(F,Y,A,K)n [FYAK], the “induction of immunosuppressive cytokines IL-4 and IL-10” value [3] is listed as “most effective”.
For poly[Y, E, A, K]n [Cop1], the “reduction of relapse rate” value (relapsing-remitting MS) is given as “about 30%”, the “reduction of relapse rate” value (relapsing-remitting MS; listed as Copolymer 1) is given as 30% and the mean maximum score (EAE in SJL/J mice; at around day 22, co-immunized with PLP139-151, FIG. 5B) is given as 2.5. The “severity of EAE (in words)” value (EAE in SJL/J mice; co-immunized with PLP139-151, FIG. 5B) was “moderately suppressed”, the “proliferation of MBP85-99-specific transgenic or endogenous CD4+ cells” value [4] was “did not cross-react” and the “% inhibition” value (HLA-DR2 (DRA/DRB1*1501); Binding of biotinylated MBP (0.5 μM) by peptide competitor (1 μM)) was 8%. For the same substance, the “inhibition of binding of biotinylated MBP 85-99 to HLA-DR2 (in words)” value (HLA-DR2 (DRA/DRB1*1501); recombinant HLA-DR2, FIG. 1A and Table 1) was “less efficiently than peptides J1, J2, J3 and J5”, the “response of PLP139-151 specific cell line (cross reactivity)” value [5] was “did not cross-react” and the mean maximal score [6] was 3.5.
